Measurements: ChEMBL document CHEMBL1201862, “PubChem BioAssay data set” (2004)
Activity calls are given as the source filed them.

Tests used:
Estrogen receptor beta = Estrogen receptor beta (Homo sapiens, UniProt Q92731);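 further: recombinant ER-beta bound to coactivator SRC1 peptide in presence of estradiol agonist; inhibitors block coactivator peptide binding and lower the FRET signal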
Estrogen receptor = target: T1, Estrogen receptor (Homo sapiens, UniProt P03372);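 further: potency for inhibiting coactivator peptide recruitment to the receptor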
T1 sequence (P03372 whole entry): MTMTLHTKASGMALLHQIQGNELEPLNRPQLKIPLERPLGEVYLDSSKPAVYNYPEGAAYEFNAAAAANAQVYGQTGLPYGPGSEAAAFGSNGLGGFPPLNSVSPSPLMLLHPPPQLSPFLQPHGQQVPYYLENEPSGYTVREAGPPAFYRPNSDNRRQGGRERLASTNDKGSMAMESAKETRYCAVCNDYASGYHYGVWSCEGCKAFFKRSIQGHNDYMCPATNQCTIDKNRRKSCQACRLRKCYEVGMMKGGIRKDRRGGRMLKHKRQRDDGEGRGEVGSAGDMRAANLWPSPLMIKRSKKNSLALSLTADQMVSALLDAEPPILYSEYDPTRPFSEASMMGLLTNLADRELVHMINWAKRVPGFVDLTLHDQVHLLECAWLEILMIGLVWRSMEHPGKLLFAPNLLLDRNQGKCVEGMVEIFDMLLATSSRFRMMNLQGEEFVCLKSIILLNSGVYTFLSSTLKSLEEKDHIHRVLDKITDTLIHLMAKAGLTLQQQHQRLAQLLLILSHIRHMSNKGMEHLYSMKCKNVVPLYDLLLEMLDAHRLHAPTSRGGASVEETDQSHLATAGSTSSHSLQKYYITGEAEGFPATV

[1] = Luminescent dose response cell-based high throughput screening assay for inhibitors of the Janus kinase 2 mutant JAK2V617F. [Related pubchem assays: 1446 (Primary screen.), 1521 (Confirmation assay.), 1486 (Counter screen.)]; assay type: functional
[2] = target: T2, Rac GTPase-activating protein 1 (Homo sapiens, UniProt Q9H0H5); experiment: MgcRacGAP GTPase-activating activity inhibitors, confirmation, biochemical, ADP Hunter fluorescence, primary and confirmatory (AID 624330); assay type: functional
T2 sequence (Q9H0H5 whole entry): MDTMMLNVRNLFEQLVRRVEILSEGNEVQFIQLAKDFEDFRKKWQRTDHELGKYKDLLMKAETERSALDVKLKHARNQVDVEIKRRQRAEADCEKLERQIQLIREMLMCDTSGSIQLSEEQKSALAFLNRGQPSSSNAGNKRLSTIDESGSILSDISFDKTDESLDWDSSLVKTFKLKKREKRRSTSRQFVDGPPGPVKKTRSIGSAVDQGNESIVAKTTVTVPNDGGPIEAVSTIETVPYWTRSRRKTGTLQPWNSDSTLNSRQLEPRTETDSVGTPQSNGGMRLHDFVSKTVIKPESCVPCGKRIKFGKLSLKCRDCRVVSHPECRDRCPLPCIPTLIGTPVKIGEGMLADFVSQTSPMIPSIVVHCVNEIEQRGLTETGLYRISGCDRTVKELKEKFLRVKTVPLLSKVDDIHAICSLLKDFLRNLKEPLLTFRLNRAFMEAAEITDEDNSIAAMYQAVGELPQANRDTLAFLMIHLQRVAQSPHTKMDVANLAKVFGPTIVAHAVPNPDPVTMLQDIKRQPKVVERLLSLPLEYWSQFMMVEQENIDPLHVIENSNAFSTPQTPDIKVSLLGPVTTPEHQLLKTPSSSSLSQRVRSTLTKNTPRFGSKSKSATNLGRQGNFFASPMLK

[3] = THP-1 cell cytotoxicity, dose response, cytotoxicity control for Vif-APOBEC3G degradation inhibitor project, THP-1 cells (AID 1117359); assay type: functional; settings: Human immunodeficiency virus 1, THP-1
[4] = target: T3, Corticotropin-releasing factor receptor 2/Corticotropin-releasing factor-binding protein (Homo sapiens, UniProt P24387+Q13324); experiment: Dose Response confirmation of uHTS hits for small molecule antagonists of the CRF-binding protein and CRF-R2 receptor complex.; assay type: functional; settings: read-out: IC50_Mean
T3 sequence (Q13324 whole entry): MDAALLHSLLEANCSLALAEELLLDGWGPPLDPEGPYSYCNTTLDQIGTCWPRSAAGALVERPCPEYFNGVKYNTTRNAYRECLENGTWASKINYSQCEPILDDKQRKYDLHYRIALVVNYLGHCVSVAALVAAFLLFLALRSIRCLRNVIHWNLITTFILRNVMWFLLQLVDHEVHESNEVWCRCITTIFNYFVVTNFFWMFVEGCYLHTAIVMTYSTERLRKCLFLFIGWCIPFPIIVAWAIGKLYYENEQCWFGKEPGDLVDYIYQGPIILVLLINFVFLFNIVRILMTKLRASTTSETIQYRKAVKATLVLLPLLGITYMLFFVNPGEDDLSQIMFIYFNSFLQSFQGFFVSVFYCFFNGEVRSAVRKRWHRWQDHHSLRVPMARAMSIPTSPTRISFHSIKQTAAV
T3 sequence (P24387 whole entry): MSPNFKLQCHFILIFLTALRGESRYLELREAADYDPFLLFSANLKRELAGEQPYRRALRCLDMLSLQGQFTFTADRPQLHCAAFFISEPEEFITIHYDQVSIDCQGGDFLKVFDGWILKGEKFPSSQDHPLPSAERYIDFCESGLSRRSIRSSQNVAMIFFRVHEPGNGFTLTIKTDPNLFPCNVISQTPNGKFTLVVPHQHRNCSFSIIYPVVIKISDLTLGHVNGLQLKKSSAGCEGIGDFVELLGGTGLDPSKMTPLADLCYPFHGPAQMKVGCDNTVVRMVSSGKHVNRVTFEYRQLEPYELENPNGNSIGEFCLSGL

[5] = M. tuberculosis growth inhibition, HTS (AID 449762); assay type: functional
[6] = HEp-2 cell cytotoxicity, dose response, cytotoxicity control for RSV inhibitor project, HTS (AID 2410); assay type: functional; settings: human respiratory syncytial virus
[7] = microbe, parasite or virus in culture; assay type: functional; settings: Mycobacterium tuberculosis
[8] = target: T3, Corticotropin-releasing factor receptor 2/Corticotropin-releasing factor-binding protein; experiment: activators of CRF receptor 2 with binding protein – uHTS hits, confirmation (AID 602473); assay type: functional; settings: read-out: EC50_Mean

Sequence of Estrogen receptor beta (Q92731 whole entry): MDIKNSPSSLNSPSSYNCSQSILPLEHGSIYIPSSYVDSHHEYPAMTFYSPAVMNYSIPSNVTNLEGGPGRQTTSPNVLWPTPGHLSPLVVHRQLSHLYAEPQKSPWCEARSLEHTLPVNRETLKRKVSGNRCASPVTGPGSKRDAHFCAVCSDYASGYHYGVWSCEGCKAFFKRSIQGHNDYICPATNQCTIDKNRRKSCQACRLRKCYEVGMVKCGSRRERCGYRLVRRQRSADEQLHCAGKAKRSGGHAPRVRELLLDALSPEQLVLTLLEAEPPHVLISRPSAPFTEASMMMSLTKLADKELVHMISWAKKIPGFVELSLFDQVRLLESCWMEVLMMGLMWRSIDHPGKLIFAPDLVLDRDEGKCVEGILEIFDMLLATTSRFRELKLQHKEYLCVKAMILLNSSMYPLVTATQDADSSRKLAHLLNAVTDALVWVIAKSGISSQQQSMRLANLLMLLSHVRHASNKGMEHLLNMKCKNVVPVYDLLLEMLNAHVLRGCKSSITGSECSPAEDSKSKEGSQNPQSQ

Cn1nc([N+](=O)[O-])c2c(-c3nc4ccccc4s3)c(N)n(C3CCCCC3)c2c1=O
IC50 (Estrogen receptor beta): 6.01 µM (active) | IC50 (Estrogen receptor): 4.98 µM (active)

O=C(/C=C/c1ccc(O)c(O)c1)c1ccc(S(=O)(=O)N2CCCCCC2)cc1
IC50 [1]: 0.835 µM (active) | IC50 [2]: 82 µM (active) | CC50 [3]: 26.3 µM (active)

Cc1nn(-c2ccccc2)c(N2CCCC2)c1/C=N/Nc1ccc(S(N)(=O)=O)cc1[N+](=O)[O-]
IC50 [4]: > 47.1 µM (inactive) | IC50 [5]: > 100 µM (active) | CC50 [6]: 33.2 µM (active) | CC50 [7]: > 40 µM (active) | EC50 [8]: > 53 µM (inactive)
